This note sets out measurements from the METLIN SMRT retention time set (Domingo-Almenara et al. 2019).

The data set is described as follows: gradient 5% acetonitrile 3 min, to 50% in 2 min, to 85% in 15 min, held 3 min, 100 µL/min. The settings on record: column: Zorbax Extend-C18 2.1 x 50 mm; eluents: water / acetonitrile, 0.1% formic acid. Put shortly: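 Retention time was recorded from adduct peaks, which were picked computationally and each inspected manually. Pure standards ran in mixtures of ~100 molecules on HPLC coupled to a quadrupole time-of-flight mass spectrometer, in positive and negative ionization mode, through a Zorbax Extend-C18 column (2.1 × 50 mm, 1.8 μm) at 100 μL/min. Eluents were water and acetonitrile, each with 0.1% formic acid.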
The molecule `Cc1cc(C(=O)NC2CC2)c2cccc(Cl)c2n1` had an RP-LC retention time of 716 s.

Take `CCCS(=O)(=O)Nc1cccc(-c2cn3cccc(C)c3n2)c1`: the RP-LC retention time was 624 s.

Molecule `Brc1c(Br)c(Br)c2[nH]cnc2c1Br` had an RP-LC retention time of 979 s.

The molecule `Cc1cccc(S(=O)(=O)Nc2ccc(-c3cn4cccc(C)c4n3)cc2)c1` came in with an RP-LC retention time of 659 s.

For `O=C(Nc1ccc(F)cc1F)c1c(O)c2cccnc2n(Cc2ccccc2)c1=O`, the RP-LC retention time amounted to 1310 s.

As for `Cc1nnc(N2CCCC(C(=O)Nc3ccccc3Cl)C2)c2nn(-c3ccccc3)c(C)c12` (stereo not given), the RP-LC retention time was 767 s.

In turn, `COc1ccccc1-c1ccc(N2CCC(C(=O)NN3CCOCC3)CC2)nn1` yielded an RP-LC retention time of 530 s.

Consider `CCN1C(=O)COc2ccc(-c3noc(-c4cccc(C)c4)n3)cc21`, for which the RP-LC retention time was found to be 1210 s.

In turn, `CC1(C)CC(=O)c2cn(-c3ccccc3)c(=O)c(C(=O)Nc3ccccc3F)c2C1` yielded an RP-LC retention time of 1040 s.

Regarding `CC1(C(=O)NCc2ccc3c(c2)OCO3)CCN(C(=O)/C=C/c2ccccc2)CC1`, the RP-LC retention time came out at 817 s.

As for `O=C(c1csc(C(=O)N2CCCC2)n1)N1CCSCC1`, the RP-LC retention time stood at 700 s.

`COc1cc(-c2nc3ccc(C)cn3c2Nc2ccc(C)cc2)ccc1O` yielded an RP-LC retention time of 661 s.

`CC(C)CC(=O)N1CCN(c2ccc(=O)n(-c3ccc(Cl)cc3)n2)CC1` registered an RP-LC retention time of 809 s.

Molecule `Cc1ccc2nc(C(=O)NCc3ccc(OC(C)C)cc3)cn2c1` came in with an RP-LC retention time of 731 s.

In turn, `Cc1onc(-c2cccnc2)c1C(=O)Nc1ccc(Br)cc1F` showed an RP-LC retention time of 798 s.

Consider `CCCC(=O)N1CCc2c([nH]c3ccccc23)C1c1ccc(OC)cc1` (stereo not given), for which the RP-LC retention time was 720 s.

In the case of `CC(C)NC(=O)c1c2c(cn(-c3ccc(F)cc3)c1=O)C(=O)CC(C)(C)C2`, the RP-LC retention time is 869 s.

The molecule `Cc1ccc(Nc2c(-c3ccccc3O)nc3ccc(Cl)cn23)cc1` registered an RP-LC retention time of 1080 s.

`COc1cc(OC)cc(C2(C#N)CCN(C)CC2)c1` yielded an RP-LC retention time of 665 s.

`COCCCNC(=O)c1ccc(-c2cnc(NC3CCCCC3)nc2)cc1` returned an RP-LC retention time of 806 s.

For `Cc1ccc2c(c1)N(Cc1nc(-c3ccc(F)cc3)no1)C(=O)CO2`, the RP-LC retention time amounted to 1060 s.

As to `CCCn1nc2n(c1=O)CCN(Cc1cn[nH]c1-c1cc(OC)ccc1OC)C2`, the RP-LC retention time came to 616 s.

In turn, `O=C(CSc1ccc(F)cc1)OCc1cc(-c2ccc3c(c2)OCO3)on1` came in with an RP-LC retention time of 1020 s.

Consider `O=C(NC1CC1)c1ccc(OCC2CCN(C(=O)c3c(F)cccc3Cl)CC2)cc1`, for which the RP-LC retention time came out at 837 s.

As to `Cc1nc(OCC(=O)Nc2ccc(Cl)c(C(F)(F)F)c2)c2ccccc2n1`, the RP-LC retention time is 892 s.

Molecule `O=C(NC1CCCCCC1)c1ccc2ncnc(N3CCCC3)c2c1` returned an RP-LC retention time of 675 s.

Molecule `O=C(NC1CCN(c2cc(-c3ccc(Cl)cc3)[nH]n2)C1)c1ccc2nc[nH]c2c1` (stereo not given) showed an RP-LC retention time of 626 s.

`Cc1nc(-c2cn(C(C)C)c3ncccc23)sc1C(=O)NCc1ccc2c(c1)OCO2` registered an RP-LC retention time of 980 s.

Regarding `COc1ccc(C(=O)Nc2c(-c3ccc(F)cc3)nc3cc(C)ccn23)c(OC)c1`, the RP-LC retention time is 697 s.

In turn, `Cc1ccc(C)c(NC(=O)N2CCCC(Cn3cnc4cccnc43)C2)c1` (stereo not given) gave an RP-LC retention time of 676 s.

Consider `CCSc1nc2c(s1)c(=O)n(-c1ccccc1)c(=O)n2CC(=O)NC1CCCCC1`, for which the RP-LC retention time turned out to be 645 s.

For the molecule `O=C(NCC1CC1)C1CCCN(c2cnc3nccnc3c2)C1` (stereo not given), the RP-LC retention time worked out at 643 s.

In turn, `COc1ccc(OC)c(S(=O)(=O)N2CCC(C)(c3noc(C)n3)CC2)c1` gave an RP-LC retention time of 866 s.

In turn, `CC(C)c1ccc(N2C(=O)CC(N3CCC(C(N)=O)CC3)C2=O)cc1` (stereo not given) registered an RP-LC retention time of 638 s.

Molecule `Cn1ncc(N2CCC(C(=O)Nc3ccc4oc(-c5ccncc5)nc4c3)C2)cc1=O` (stereo not given) returned an RP-LC retention time of 642 s.

`CCOc1ccc(-c2noc(Cn3ncn4nc(-c5ccc(F)cc5)cc4c3=O)n2)cc1OC` had an RP-LC retention time of 1070 s.

`O=C(Nc1nnc(-c2ccc3c(c2)CCCC3)o1)c1ccc([N+](=O)[O-])o1` had an RP-LC retention time of 918 s.

`Cc1ccc(NS(=O)(=O)c2cc(-c3[nH]ncc3C(=O)N(C)C)oc2C)c(Cl)c1`: the RP-LC retention time is 707 s.

On to `CCOC(=O)c1coc(NC(=O)Nc2cccs2)n1`, for which the RP-LC retention time amounted to 706 s.

As to `O=C1[C@H]2CN(Cc3cc(F)c(F)c(F)c3)C[C@H]2C(=O)N1CCc1ccccc1`, the RP-LC retention time worked out at 982 s.

On to `O=C(NCc1ccccc1F)c1cc2n(n1)CCCC2`, for which the RP-LC retention time amounted to 794 s.

With `O=C(CN1CCN(C(=O)Nc2ccccc2)CC1=O)NC1CCCCCC1`, the RP-LC retention time came to 721 s.

Molecule `O=C1Cc2cc(NC(=O)Nc3ccc(Cl)c(Cl)c3)ccc2N1` displayed an RP-LC retention time of 742 s.

Molecule `CC1CCN(S(=O)(=O)c2ccc3c(c2)CCCC(=O)N3CC(=O)N2CCCC2)CC1` returned an RP-LC retention time of 819 s.

Molecule `Cc1nn(C(C)C(=O)NCCC(C)C)c(=O)c2c(C)n(-c3ccccc3)nc12` (stereo not given) displayed an RP-LC retention time of 948 s.

Regarding `CC(C(=O)Nc1c(F)cccc1F)C1CCN(C(=O)Nc2ccc(Cl)cc2)CC1` (stereo not given), the RP-LC retention time was 865 s.

In the case of `Cc1ccc(Nc2nc(C)cc(N3CCN(S(=O)(=O)c4cc(F)ccc4C)CC3)n2)cc1`, the RP-LC retention time came out at 823 s.

The molecule `CCCn1ccc2sc(C)c(C(=O)NCCC3=CCCCC3)c2c1=O` gave an RP-LC retention time of 1000 s.

Molecule `COc1ccc(N2N=NC3C(=O)N(c4ccc(F)cc4)C(=O)C32)cc1OC` (stereo not given) returned an RP-LC retention time of 1140 s.

Consider `CC(C)CCNC(=O)N1CC(c2nc(-c3ccccc3)no2)C2(CCOCC2)C1` (stereo not given), for which the RP-LC retention time was 914 s.

`Cc1ccc(CSc2nccc3c2ccn3CC(=O)N2CCN(c3ccccn3)CC2)cc1` came in with an RP-LC retention time of 604 s.

For `Cc1ccc(N2CC(c3nc(-c4ccc5c(c4)ncn5CCC(=O)N4CCCC4)no3)CC2=O)cc1C` (stereo not given), the RP-LC retention time came to 738 s.

On to `CCC(=O)N1c2ccc(S(=O)(=O)N3CCCCC3)cc2CC1C(=O)NC1CCCCC1` (stereo not given), for which the RP-LC retention time amounted to 895 s.

For `O=C(NCCN1CCOCC1)c1csc(N2CCN(c3ccc(F)cc3)CC2)n1`, the RP-LC retention time amounted to 664 s.

In the case of `CS(=O)(=O)N1CCC(C(=O)Nc2nnc(SCc3cc(F)ccc3F)s2)CC1`, the RP-LC retention time amounted to 762 s.

Take `O=C(CCc1csc(NC(=O)c2ccc(=O)[nH]c2)n1)NCc1ccccn1`: the RP-LC retention time turned out to be 542 s.

Consider `Cc1cc(C(=O)NC2CCCC2)c2cc(F)ccc2n1`, for which the RP-LC retention time was found to be 710 s.

Turning to `O=S(=O)(Nc1cc(F)ccc1F)c1c[nH]c2ncccc12`, the RP-LC retention time was 715 s.

`Cc1noc(C)c1S(=O)(=O)N1CCCn2nc(-c3cccs3)cc2C1` had an RP-LC retention time of 880 s.

`CS(=O)(=O)N1CCN=C1SCc1ccc(Cl)c(Cl)c1` displayed an RP-LC retention time of 889 s.
